Test results taken from US20050130134A1, “Means and methods for monitoring non-nucleoside reverse transcriptase inhibitor antiretroviral therapy and guiding therapeutic decisions in the treatment HIV-AIDS” (ViroLogic, Inc., priority 2000, published 2005).
Several values for one entry are separate records, joined by “and”; a condition that tells them apart may be missing. Equal entries are not always repeated. Entries after “also recorded” stand apart in the source; their conditions may differ.

Legend:
[1] = tested on: HIV-1 reverse transcriptase V189L (V189L-RTV); assay: Phenotypic susceptibility assay, site directed mutant V189L-RTV; type: cell-based; conditions: >1 loss of susceptibility
Method: (§1) Resistance tests were carried out with resistance test vectors using two host cell types. Resistance test vector viral particles were produced by a first host cell (the resistance test vector host cell) that was prepared by transfecting a packaging host cell with the resistance test vector and the packaging expression vector. The resistance test vector viral particles were then used to infect a second host cell (the target host cell) in which the expression of the indicator gene is measured.
(§2) The resistance test vectors containing a functional luciferase gene cassette were constructed and host cells were transfected with the resistance test vector DNA. The resistant test vectors contained patient-derived reverse transcriptase and protease sequences that were either susceptible or resistant to the antiretroviral agents, such as nucleoside reverse transcriptase inhibitors, non-nucleoside reverse transcriptase inhibitors and protease inhibitors. The resistance test vector viral particles produced by transfecting the resistance test vector DNA into host cells, either in the presence or absence of protease inhibitors, were used to infect target host cells grown either in the absence of NRTI or NNRTI or in the presence of increasing concentrations of the drug. […] The IC50 values were determined by plotting percent drug inhibition vs. log10 drug concentration.
(§3) Host cells were seeded in 10-cm-diameter dishes and were transfected several days after plating with resistance test vector plasmid DNA and the envelope expression vector. […] HIV capsid protein (p24) levels in the harvested cell culture media were determined by an EIA method as described by the manufacturer (SIAC; Frederick, Md.). […] The inhibitory effect of the drug was determined using the following equation: % luciferase inhibition=1-(RLUluc[drug]÷RLUluc)×100 where RLUluc [drug] is the relative light unit of luciferase activity in infected cells in the presence of drug and RLUluc is the Relative Light Unit of luciferase activity in infected cells in the absence of drug. […]

[2] = tested on: HIV-1 reverse transcriptase Y188C (Y188C-RTV); assay: Phenotypic susceptibility assay, site directed mutant Y188C-RTV; type: cell-based; conditions: >1 loss of susceptibility
Method: as §1, §2, §3

[3] = tested on: HIV-1 reverse transcriptase P225H (P225H-RTV); assay: Phenotypic susceptibility assay, site directed mutant P225H-RTV; type: cell-based; conditions: P225H alone versus wild type control RTV
Method: (§4) Transfections were performed using a calcium-phosphate precipitation procedure. […] Cell lysates were assayed for luciferase activity (FIG. 3). […] The drug inhibition curves are shown in (FIG. 3).
Resistance test vectors were constructed containing the P225H mutation alone and in combination with other known drug resistance mutations (K103N, Y181C) known to modulate the HIV susceptibility to NNRTIs. […] (Sakar G and Sommar S S (1994) Biotechniques 8(4), 404-407). […] The P225H mutation was also introduced into a RTV containing additional mutations at K103N, Y181C or both (K103N+Y181C).

[4] = tested on: HIV-1 reverse transcriptase Y188L (Y188L-RTV); assay: Phenotypic susceptibility assay, site directed mutant Y188L-RTV; type: cell-based; conditions: >1 loss of susceptibility
Method: as §1, §2, §3

[5] = tested on: HIV-1 reverse transcriptase G190S (G190S-RTV); assay: Phenotypic susceptibility assay, site directed mutant G190S-RTV; type: cell-based; conditions: for fold change in susceptibility compared to wild type control RTV: G190S-RTV, >1 loss, <1 increased susceptibility; for change in susceptibility: G190S-RTV versus wild type reference RTV
Method: as §1
(§5) The resistance test vectors containing a functional luciferase gene cassette were constructed and host cells were transfected with the resistance test vector DNA. The resistant test vectors contained patient-derived reverse transcriptase and protease sequences that were either susceptible or resistant to the antiretroviral agents, such as nucleoside reverse transcriptase inhibitors, non-nucleoside reverse transcriptase inhibitors and protease inhibitors. The resistance test vector viral particles produced by transfecting the resistance test vector DNA into host cells, either in the presence or absence of protease inhibitors, were used to infect target host cells grown either in the absence of NRTI or NNRTI or in the presence of increasing concentrations of the drug. The amount of luciferase activity produced in infected target host cells in the presence of drug was compared to the amount of luciferase produced in infected target host cells in the absence of drug. Drug resistance was measured as the amount of drug required to inhibit by 50% the luciferase activity detected in the absence of drug (inhibitory concentration 50%, IC50). The IC50 values were determined by plotting percent drug inhibition vs. log10 drug concentration.
(§6) Host cells were seeded in 10-cm-diameter dishes and were transfected several days after plating with resistance test vector plasmid DNA and the envelope expression vector. Transfections were performed using a calcium-phosphate precipitation procedure. The cell culture media containing the DNA precipitate was replaced with fresh medium, from one to 24 hours, after transfection. Cell culture media containing resistance test vector viral particles was harvested one to four days after transfection and was passed through a […] filter before being stored at −80° C. HIV capsid protein (p24) levels in the harvested cell culture media were determined by an EIA method as described by the manufacturer (SIAC; Frederick, Md.). Before infection, target cells (293 and 293/T) were plated in cell culture media. Control infections were performed using cell culture media from mock transfections (no DNA) or transfections containing the resistance test vector plasmid DNA without the envelope expression plasmid. One to three or more days after infection the media was removed and cell lysis buffer (Promega) was added to each well. […] The inhibitory effect of the drug was determined using the following equation: % luciferase inhibition=1-(RLUluc[drug]÷RLUluc)×100 where RLUluc [drug] is the relative light unit of luciferase activity in infected cells in the presence of drug and RLUluc is the Relative Light Unit of luciferase activity in infected cells in the absence of drug. IC50 values were obtained from the sigmoidal curves that were generated from the data by plotting the percent inhibition of luciferase activity vs. the log10 drug concentration. […]

[6] = tested on: T66I integrase site-directed mutant; assay: Phenotypic susceptibility assay, integrase T66I mutated resistance test vector; type: cell-based, HIV; conditions: {}
Method: as §4
A resistance test vector containing the threonine to isoleucine mutation at position 66 of the integrase protein (T66I) was constructed and tested using the phenotypic assay described earlier.

[7] = tested on: HIV-1 reverse transcriptase V106A + Y181C (V106A-Y181C-RTV); assay: Phenotypic susceptibility assay, site directed mutant V106A-Y181C-RTV; type: cell-based; conditions: >1 loss of susceptibility
Method: as §1, §2, §3

[8] = tested on: HIV-1 reverse transcriptase E138A + Y188L (E138A-Y188L-RTV); assay: Phenotypic susceptibility assay, site directed mutant E138A-Y188L-RTV; type: cell-based; conditions: >1 loss of susceptibility
Method: as §1, §2, §3

[9] = tested on: RTV-B clone 1 (RT A98G, G190S); assay: Phenotypic susceptibility assay, RTV-B clone 1 (patient B); type: cell-based, HIV-1; conditions: >1 loss, <1 increased susceptibility
Method: as §1, §2, §3

[10] = tested on: RTV-1060 patient virus (RT K101E, G190S); assay: Phenotypic susceptibility assay, RTV-1060 (patient 98-1060); type: cell-based, HIV-1; conditions: >1 decreased susceptibility
Method: as §1
The resistance test vectors containing a functional luciferase gene cassette were constructed and host cells were transfected with the resistance test vector DNA. The resistant test vectors contained patient-derived reverse transcriptase and protease sequences that were either susceptible or resistant to the antiretroviral agents, such as nucleoside reverse transcriptase inhibitors, non-nucleoside reverse transcriptase inhibitors and protease inhibitors. […] The IC50 values were determined by plotting percent drug inhibition vs. log10 drug concentration.
as §3
An IC50 was determined for the resistance test vector pool for each drug tested.

[11] = tested on: HIV-1 reverse transcriptase K103N + G190A (K103N-G190A-RTV); assay: Phenotypic susceptibility assay, site directed mutant K103N-G190A-RTV; type: cell-based; conditions: K103N-G190-RTV (K103N + G190A); >1 loss of susceptibility
Method: as §1, §2, §3

[12] = tested on: HIV-1 reverse transcriptase Y181C + F227L (Y181C-F227L-RTV); assay: Phenotypic susceptibility assay, site directed mutant Y181C-F227L-RTV; type: cell-based; conditions: >1 loss, <1 increased susceptibility
Method: as §1, §2, §3

[13] = tested on: HIV-1 reverse transcriptase E138A (E138A-RTV); assay: Phenotypic susceptibility assay, site directed mutant E138A-RTV; type: cell-based; conditions: >1 loss of susceptibility
Method: as §1, §2, §3

[14] = tested on: HIV-1 reverse transcriptase K103N (K103N-RTV); assay: Phenotypic susceptibility assay, site directed mutant K103N-RTV; type: cell-based; conditions: for fold change in susceptibility compared to wild type control RTV: K103N-RTV, >1 loss of susceptibility; for change in susceptibility / resistance: K103N mutation
Method: as §1, §5, §6

[15] = tested on: HIV-1 reverse transcriptase K101E + G190A (K101E-G190A-RTV); assay: Phenotypic susceptibility assay, site directed mutant K101E-G190A-RTV; type: cell-based; conditions: >1 loss of susceptibility
Method: as §1, §2, §3

[16] = tested on: HIV-1 reverse transcriptase K101E (K101E-RTV); assay: Phenotypic susceptibility assay, site directed mutant K101E-RTV; type: cell-based
Method: as §1, §5, §6

[17] = K101E-RTV, >1 loss of susceptibility
[18] = second pair of values printed in the K101E-RTV sentence of b280

| Compound | fold change in susceptibility compared to wild type control RTV [1] [fold] | fold change in susceptibility compared to wild type control RTV [2] [fold] | change in susceptibility [3] | fold change in susceptibility compared to wild type control RTV [4] | fold change in susceptibility compared to wild type control RTV [5] [fold] | increase in susceptibility compared to wild type control RTV [6] [fold] | fold change in susceptibility compared to wild type control RTV [7] | fold change in susceptibility compared to wild type control RTV [8] | fold change in susceptibility [9] [fold] | fold change in susceptibility [10] | fold change in susceptibility compared to wild type control RTV [11] | fold change in susceptibility compared to wild type control RTV [12] [fold] | fold change in susceptibility compared to wild type control RTV [13] [fold] | fold change in susceptibility compared to wild type control RTV [14] [fold] | fold change in susceptibility compared to wild type control RTV [15] | fold change in susceptibility compared to wild type control RTV [16, 17] [fold] | fold change in susceptibility compared to wild type control RTV [16, 18] [fold] | change in susceptibility [5] | change in susceptibility / resistance [14] |
| --- | --- | --- | --- | --- | --- | --- | --- | --- | --- | --- | --- | --- | --- | --- | --- | --- | --- | --- | --- |
| O=C1Nc2ccc(Cl)cc2[C@@](C#CC2CC2)(C(F)(F)F)O1 [efavirenz] | 1.3 | 20 | little or no change | 109 fold and 110 fold | 8 | 8 to 10 | 4 fold | 88 fold | 250 | 900 fold | 215 fold | 0.99 | 1.4 | 30 | 120 fold | 5 | 30 |  |  |
| CC(C)Nc1cccnc1N1CCN(C(=O)c2cc3cc(NS(C)(=O)=O)ccc3[nH]2)CC1 [delavirdine] | 1.8 | 3 | more susceptible; also recorded: increase; also recorded: increases susceptibility | 9 fold | 0.5 | 8 to 10 | 100 fold | 75 fold | 0.55 | 1.5 fold | 40 fold | 0.89 | 1.6 | 50 | 2 fold | 5 |  | slightly more susceptible; also recorded: increase; also recorded: slightly increase susceptibility | reduced susceptibility; also recorded: resistance |
| Cc1ccnc2c1NC(=O)c1cccnc1N2C1CC1 [nevirapine] | 1.3 | 30 | No significant change; also recorded: little or no change | greater than 800 fold | 75 | 8 to 10 | greater than 800 fold | greater than 800 fold | 640 | greater than 800 fold | greater than 800 fold | 285 | 1.3 | 55 | greater than 800 fold | 12 | 55 | markedly less susceptible; also recorded: decrease; also recorded: greatly reduce susceptibility | reduced susceptibility; also recorded: resistance |
